Earlier results as cited in patent US20080293820A1, “METHODS FOR IMPROVING PHYSICAL FUNCTION IN FIBROMYALGIA” (Cypress Bioscience, Inc., priority 2007, published 2008).
Where a name gives a salt, the structure may show the parent alone.

Test system: fibromyalgia patients
Details: cited from earlier work
[1] = both milnacipran treatment groups (QD and BID), escalation to maximum 200 mg/day

SMILES: CCN(CC)C(=O)C1(c2ccccc2)CC1CN (racemic) [milnacipran, Z-2-aminomethyl-1-phenyl-N,N-diethylcyclopropanecarboxamide hydrochloride]
- effect on the symptom of pain in FMS (in words) (100 mg BID): effective acute (short-term) therapy
- PGIC: completers who reported an improvement in their overall status [1]: over 70%
- PGIC: completers who reported worsening [1]: 10%
